Assay results: patent US8889721B2, “Clothianidin, metofluthrin, and piperonyl butoxide mixture for bed bug control” (priority 2012, dated 2014)

Legend:
[1] = tested on: Harlan-strain bed bugs; test: Residual exposure to mixtures on wood panels, mortality/morbidity and knockdown (Example 7); format: in vivo, Cimex lectularius; conditions: for % Morbidity / % Mortality: Residual Efficacy at Day 30
Method: (§1) A bioassay was performed to determine the knockdown and mortality rates of bed bugs exposed to the residual of mixtures of clothianidin, metofluthrin, and PBO. Two bed bug (Cimex lectularius) strains were used; Harlan-strain which is susceptible to pyrethroids, and Winston Salem-strain which is known to have a 500-fold resistance level to deltamethrin. In this bioassay, a mixture of clothianidin, metofluthrin, and PBO with fumed silica was compared to combinations of clothianidin and metofluthrin, clothianidin and PBO, and clothianidin.
(§2) Unpainted wood was cut into 6 inch square panels and a DeVries spray booth was used to deliver 1 ml of test substance in an even spray that provided approximately 1 gal/1000 sq. ft. delivery rate. A cone jet nozzle was used approximately 12 inches directly above the wood panels. The panels were allowed to dry and then aged indoors in a climate controlled environment with temperatures ranging from approximately 65 to 72 degrees Fahrenheit. All tests were done in 4 replicates (40 total insects per treatment).
(§3) Insects were fed a blood meal the day prior to testing. The inner walls of Petri dishes were treated with Fluon to prevent the insects from attaching to the sides of the dishes during treatment.
(§4) On the day of testing, 10 insects were placed in each Petri dish. The bed bugs were separated with tweezers and observed to be healthy and active before treatments. The Petri dishes were inverted onto the treated surface and gentle tapping was sometimes used to dislodge the insects from the dishes. After 5 minutes, the insects were returned to containers for mortality/morbidity and knockdown observations.
(§5) Insects were considered moribund when they were knocked down and unable to right themselves when probed. Insects were considered dead when they had no body movement. Untreated controls were handled in the same manner except that they were exposed to water treated wood panels.
(§6) Insects were exposed to the wood panels on day 1 and day 30. Mortality and morbidity observations were taken until the untreated control mortality reached […] (day 7 following exposure).
(§7) The bed bugs were observed and recordings were taken at 10, 20, 30, 60 and 240 minutes following exposure to the wood panels. Table 4 provides the percentage of bed bugs from all 4 replicates (40 total insects per treatment) that were knocked down 10 and 240 minutes after exposure to the wood panels.

[2] = tested on: Winston Salem-strain bed bugs; test: as above; format: in vivo, Cimex lectularius
Method: as §1, §2, §3, §4, §5, §6, §7

[3] = Residual Efficacy at Day 1, 1 day
[4] = Residual Efficacy at Day 1, 2 day
[5] = Residual Efficacy at Day 1, 3 day
[6] = Residual Efficacy at Day 30, 1 DAT
[7] = Residual Efficacy at Day 30, 2 DAT
[8] = Residual Efficacy at Day 30, 3 DAT
[9] = Residual Efficacy at Day 30, 4 DAT
[10] = Residual Efficacy at Day 30, 5 DAT
[11] = Residual Efficacy at Day 30, 6 DAT
[12] = Residual Efficacy at Day 30, 7 DAT

CN/C(=N\[N+](=O)[O-])NCc1cnc(Cl)s1 [0.4% Cloth.]
Knockdown ([1]; Day 1 @ 10 minutes): 48%
Knockdown ([1]; Day 1 @ 240 minutes): 95%
Knockdown ([1]; Day 30 @ 10 minutes): 20%
Knockdown ([1]; Day 30 @ 240 min): 95%
% Morbidity ([1]; 1 DAT): 75%
% Mortality ([1]; 1 DAT): 23%
% Morbidity ([1]; 2 DAT): 33%
% Mortality ([1]; 2 DAT): 68%
% Morbidity ([1]; 3 DAT): 0%
% Mortality ([1]; 3 DAT): 100%
Knockdown ([2]; Day 1 @ 10 minutes): 0%
Knockdown ([2]; Day 1 @ 240 minutes): 50%
Knockdown ([2]; Day 30 @ 10 minutes): 3%
Knockdown ([2]; Day 30 @ 240 min): 28%
% Morbidity [2, 3]: 18%
% Mortality [2, 3]: 60%
% Mortality + Morbidity [2, 3]: 78%
% Morbidity [2, 4]: 18%
% Mortality [2, 4]: 60%
% Mortality + Morbidity [2, 4]: 78%
% Morbidity [2, 5]: 12.5%
% Mortality [2, 5]: 87.5%
% Mortality + Morbidity [2, 5]: 100%
% Morbidity [2, 6]: 33%
% Mortality [2, 6]: 10%
% Morbidity [2, 7]: 28%
% Mortality [2, 7]: 20%
% Morbidity [2, 8]: 18%
% Mortality [2, 8]: 43%
% Morbidity [2, 9]: 10%
% Mortality [2, 9]: 53%
% Morbidity [2, 10]: 8%
% Mortality [2, 10]: 63%
% Morbidity [2, 11]: 3%
% Mortality [2, 11]: 70%
% Morbidity [2, 12]: 5%
% Mortality [2, 12]: 70%
